# From patent publication US12077503B2, “Substituted cyclic amides and their use as herbicides” (FMC CORPORATION, priority 2015, dated 2024)
# How the values were obtained:
# Assay in all cases: Test C postemergence
# Format in all cases: in vivo
# Conditions in all cases: scale 0 to 100, 0 no effect, 100 complete control
# [1] = tested on: chickweed (common chickweed, Stellaria media)
# Text: (§1) Seeds of plant species selected from blackgrass (Alopecurus myosuroides), ryegrass, Italian (Italian ryegrass, Lolium multiflorum), wheat (winter wheat, Triticum aestivum), Galium (catchweed bedstraw, Galium aparine), corn (Zea mays), crabgrass, large (large crabgrass, Digitaria sanguinalis), foxtail, giant (giant foxtail, Setaria faberii), johnsongrass (Sorghum halepense), lambsquarters (Chenopodium album), morningglory (Ipomoea coccinea), nutsedge, yellow (yellow nutsedge, Cyperus esculentus), pigweed (Amaranthus retroflexus), ragweed (common ragweed, Ambrosia elatior), soybean (Glycine max), barnyardgrass (Echinochloa crus-galli), oilseed rape (Brassica napus), waterhemp (common waterhemp, Amaranthus rudis) and velvetleaf (Abutilon theophrasti) were planted into a blend of loam soil and sand and treated preemergence with test chemicals formulated in a non-phytotoxic solvent mixture which included a surfactant.
# (§2) At the same time, plants selected from these crop and weed species and also Kochia (Kochia scoparia), oat, wild (wild oat, Avena fatua), and chickweed (common chickweed, Stellaria media) were planted in pots containing Sunshine Redi-Earth® planting medium comprising spaghnum peat moss, vermiculite, starter nutrients and dolomitic limestone and treated with postemergence applications of test chemicals formulated in the same manner. Plants ranged in height from 2 to 18 cm (1- to 4-leaf stage) for postemergence treatments. Treated plants and controls were maintained in a greenhouse for 13 to 15 d, after which time all species were compared to controls and visually evaluated. Plant response ratings, summarized in Table C, are based on a scale of 0 to 100 where 0 is no effect and 100 is complete control. A dash (-) response means no test result.
# [2] = tested on: nutsedge, yellow (yellow nutsedge, Cyperus esculentus)
# Text: as §1, §2
# [3] = tested on: pigweed (Amaranthus retroflexus)
# Text: as §1, §2
smiles,measurement,setting,value
O=C1NCC(c2ccc3c(c2)OC(F)(F)O3)C1C(=O)Nc1cccc(F)c1F (stereo not drawn) [Compound 635],"Plant response rating, Chickweed",[1]; 31 g ai/ha,80
same,"Plant response rating, Chickweed",[1]; 62 g ai/ha,85
same,"Plant response rating, Chickweed",[1]; 125 g ai/ha,85
same,"Plant response rating, Chickweed",[1]; 250 g ai/ha,90
same,"Plant response rating, Nutsedge, Yellow",[2]; 31 g ai/ha,0
same,"Plant response rating, Nutsedge, Yellow",[2]; 62 g ai/ha,0
same,"Plant response rating, Nutsedge, Yellow",[2]; 125 g ai/ha,0
same,"Plant response rating, Nutsedge, Yellow",[2]; 250 g ai/ha,0
same,"Plant response rating, Pigweed",[3]; 31 g ai/ha,65
same,"Plant response rating, Pigweed",[3]; 62 g ai/ha,60
same,"Plant response rating, Pigweed",[3]; 125 g ai/ha,75
same,"Plant response rating, Pigweed",[3]; 250 g ai/ha,75
